Assay [1] deals with T1, human recombinant adrenergic α2B receptor (Homo sapiens, UniProt P18089).
T1 construct: expressed in transfected cells; host or cells: CHO-K1
T1 sequence (P18089 1-450): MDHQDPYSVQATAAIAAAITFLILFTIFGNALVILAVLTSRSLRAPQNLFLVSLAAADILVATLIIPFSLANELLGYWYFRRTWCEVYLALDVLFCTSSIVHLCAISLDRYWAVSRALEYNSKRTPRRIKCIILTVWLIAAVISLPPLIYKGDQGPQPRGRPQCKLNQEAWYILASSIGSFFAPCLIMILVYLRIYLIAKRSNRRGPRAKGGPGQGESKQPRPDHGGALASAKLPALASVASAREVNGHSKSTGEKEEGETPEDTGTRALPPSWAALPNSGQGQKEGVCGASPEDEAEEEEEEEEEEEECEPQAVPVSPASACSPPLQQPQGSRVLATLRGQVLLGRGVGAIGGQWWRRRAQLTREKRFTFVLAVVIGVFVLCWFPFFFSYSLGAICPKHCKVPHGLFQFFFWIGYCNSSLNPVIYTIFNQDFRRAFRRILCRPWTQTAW
The experiment in a line: Radioligand binding, adrenergic α2B ([3H]Rauwolscine). Particulars: for Percentage inhibition of ligand binding, Adrenergic α2B (0.03 μM): repeat datapoints each shown; for inhibition at 0.03 µM: read-out: Percentage inhibition of ligand binding, Adrenergic α2B (0.03 μM), compound at 0.03 μM, repeat datapoints each shown. As to the method: To evaluate in radioligand binding assays the activity of compounds of the invention, human recombinant adrenergic α2B receptor expressed in Chinese hamster ovary (CHO) K1 cells (Uhlen, S. et al, Eur. J. Pharmacol. 343(1):93, 1998) in a modified Tris-HCl buffer (50 mM Tris-HCl, pH 7.4, 12.5 mM MgCl2, 1 mM EDTA, 0.2% BSA) was used. Compounds of the invention were incubated with 2.5 nM [3H]Rauwolscine for 60 min at 25° C. Non-specific binding was estimated in the presence of 10 μM Prazosin. Receptor proteins were filtered and washed, the filters were then counted to determine [3H]Rauwolscine specifically bound. […] Compounds of the invention were tested in this biochemical assay and percent inhibition of specific binding was determined. Biochemical assay results are presented as the percent inhibition of specific binding in Table B1.

For assay [2], the target named is T2, human recombinant adrenergic α2A receptor (Homo sapiens, UniProt P08913).
T2 construct: expressed in transfected cells; host or cells: insect Sf9 cells
T2 sequence (P08913 1-465): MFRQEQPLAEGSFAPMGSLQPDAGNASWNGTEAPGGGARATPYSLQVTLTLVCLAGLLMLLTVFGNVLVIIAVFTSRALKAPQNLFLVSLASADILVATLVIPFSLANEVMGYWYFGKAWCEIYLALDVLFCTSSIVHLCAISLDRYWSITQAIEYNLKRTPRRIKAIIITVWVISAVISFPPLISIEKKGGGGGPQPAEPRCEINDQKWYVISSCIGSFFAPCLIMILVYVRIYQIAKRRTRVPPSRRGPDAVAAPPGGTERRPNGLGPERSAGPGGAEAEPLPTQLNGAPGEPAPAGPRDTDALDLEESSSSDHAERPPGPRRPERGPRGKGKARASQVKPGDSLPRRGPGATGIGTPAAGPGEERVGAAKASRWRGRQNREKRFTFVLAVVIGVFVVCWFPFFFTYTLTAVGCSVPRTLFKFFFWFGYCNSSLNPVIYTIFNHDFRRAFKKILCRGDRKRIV
The experiment in a line: Radioligand binding, adrenergic α2A ([3H]MK-912). As to the method: To evaluate in radioligand binding assays the activity of compounds of the invention, human recombinant adrenergic α2A receptor expressed in insect Sf9 cells (Uhlen, S. et al, J. Pharmacol. Exp. Ther. 271:1558, 1994) in a modified Tris-HCl buffer (50 mM Tris-HCl, pH 7.4, 12.5 mM MgCl2, 2 mM EDTA) was used. Compounds of invention were incubated with 1 nM [^3H]MK-912 for 60 min at 25° C. MK912 is (2S-trans)-1,3,4,5′,6,6′,7,12b-octahydro-1′,3′-dimethyl-spiro[2H-benzofuro[2,3-a]quinolizine-2,4′(1′H)-pyrimidin]-2′(3′H)-one hydrochloride. Non-specific binding was estimated in the presence of 10 μM WB-4101 (2-(2,6-Dimethoxyphenoxyethyl)aminomethyl-1,4-benzodioxane hydrochloride). Receptor proteins were filtered and washed, the filters were then counted to determine [^3H]MK-912 specifically bound. […] Compounds of the invention were tested in this biochemical assay and percent inhibition of specific binding was determined. Biochemical assay results are presented as the percent inhibition of specific binding in Table B1.

Assay [3] concerns the target T3, rat adrenergic α1B receptor (Rattus norvegicus, UniProt P15823).
T3 construct: rat adrenergic α1B receptor obtained from Wistar Rat liver; from tissue; host or cells: Wistar rat liver
T3 sequence (P15823 1-515): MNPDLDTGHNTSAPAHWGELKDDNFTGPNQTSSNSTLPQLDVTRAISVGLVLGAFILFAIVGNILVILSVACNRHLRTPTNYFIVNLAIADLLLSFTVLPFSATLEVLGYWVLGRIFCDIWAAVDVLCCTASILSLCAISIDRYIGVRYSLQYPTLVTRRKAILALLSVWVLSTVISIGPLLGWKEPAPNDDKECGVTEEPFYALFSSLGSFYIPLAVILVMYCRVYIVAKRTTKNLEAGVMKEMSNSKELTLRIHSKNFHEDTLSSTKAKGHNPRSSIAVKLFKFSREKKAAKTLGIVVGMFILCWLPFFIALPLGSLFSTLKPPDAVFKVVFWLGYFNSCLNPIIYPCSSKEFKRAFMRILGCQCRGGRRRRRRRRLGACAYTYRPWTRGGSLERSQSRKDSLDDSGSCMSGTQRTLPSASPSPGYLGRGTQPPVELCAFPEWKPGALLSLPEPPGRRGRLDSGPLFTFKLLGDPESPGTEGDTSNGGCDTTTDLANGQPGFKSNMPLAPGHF
The experiment in a line: Radioligand binding, adrenergic α1B ([3H]Prazosin). Details: species or system Wistar Rat. The procedure: To evaluate in radioligand binding assays the activity of compounds of the invention, rat adrenergic α1B receptor obtained from Wistar Rat liver (Garcia-S'ainz, J. et al, Biochem. Biophys. Res. Commun. 186:760, 1992; Michel, A. et al, Br. J. Pharmacol. 98:883, 1989) in a modified Tris-HCl buffer (50 mM Tris-HCl buffer, pH 7.4, 0.5 mM EDTA) was used. Compounds of the invention were incubated with 0.25 nM [^3H]Prazosin for 60 min at 25° C. Non-specific binding was estimated in the presence of 10 μM phentolamine. Receptor proteins were filtered and washed, the filters were then counted to determine [^3H]Prazosin specifically bound. […] Compounds of the invention were tested in this biochemical assay and percent inhibition of specific binding was determined. Biochemical assay results are presented as the percent inhibition of specific binding in Table B1.

Where [4] appears, read: read-out: Percentage inhibition of ligand binding, Adrenergic α2A (0.1 μM), compound at 0.1 μM, [3H]MK-912, repeat datapoints each shown.
Setting [5] is: 0.1 μM compound, [3H]MK-912, 0.1 µM.

Where “and” joins values, the source holds several entries; their conditions need not be identical. Equal entries are not always repeated. Where two headings read alike, the source gives them in different places.

This note sets out measurements from patent publication US9550782B2, “Compounds and methods for treating diabetes” (Medivation Technologies, Inc., priority 2011, dated 2017).

Usually Ki stands for the dissociation constant of the complex between target and ligand, obtained from inhibition or displacement. As to “2-(4-fluoro-phenyl)-1-(9-methyl-1,2,3,4,5,10c-hexahydro-3a,6-diaza-cyclopenta[c]fluoren-6-yl)-propan-2-ol [II-121b]”, the Ki was found to be 0.22 nM in assay [1] (CHO-K1, repeat assays each datapoint shown) and 9.18 nM in assay [2] ([3H]MK-912, Sf9, repeat assays each datapoint shown). The “Percentage inhibition of ligand binding, Adrenergic α2B (0.03 μM)” value in assay [1] (compound at 0.03 μM, 0.03 µM) was 100% and 103%. For the same molecule, the “Percentage inhibition of ligand binding, Adrenergic α2A (0.03 μM)” value in assay [2] (compound at 0.03 μM, [3H]MK-912, repeat datapoints each shown) stood at 54%. In addition, the “Percentage inhibition of ligand binding, Adrenergic α2A (0.1 μM)” value in assay [2] (compound at 0.1 μM, [3H]MK-912, repeat datapoints each shown, 0.1 µM) is 80% and 85%.

The inhibition is the relative decrease from the control value, in per cent. With `Cc1ccc2c(c1)c1c(n2CC(N=[N+]=[N-])c2ccncc2)CCN(C)C1` (racemic) [V-1a, 5-(2-azido-2-(pyridin-4-yl)ethyl)-2,3,4,5-tetrahydro-2,8-dimethyl-1H-pyrido[4,3-b]indole], in assay [1], the inhibition at 0.03 µM was 88%. Further, the inhibition at 0.1 µM in assay [2] (setting [4]) is 36%.

As for `Cc1ccc2c(c1)c1c(n2C(C)C(O)c2ccncc2)CCN(C)C1` (single isomer, unassigned) [127a], the “Percentage inhibition of ligand binding, Adrenergic α2B” value in assay [1] (0.03 μM compound) is on record as 43%; in assay [1] (0.1 μM compound), 74%. For `Cc1ccc2c(c1)c1c(n2CC(OC(=O)C(C)(C)C)c2ccncc2)CCN(C)C1` (single isomer, unassigned) [130b], the “Percentage inhibition of ligand binding, Adrenergic α1B” value (“Percentage inhibition … Adrenergic α1B” for short) in assay [3] (0.03 μM compound, 0.03 µM) is 2%; in assay [3] (0.1 μM compound, 0.1 µM), 8% and 11%. For the same molecule, the “Percentage inhibition of ligand binding, Adrenergic α2A” value in assay [2] (0.03 μM compound, [3H]MK-912, 0.03 µM) came out at 13%; in assay [2] (setting [5]), 31%.

For `Cc1cnc2c(c1)c1c(n2CC(O)c2ccc(F)cc2)CCN(C)C1` (single isomer, unassigned) [136b], the “Percentage inhibition of ligand binding, Adrenergic α2B” value in assay [1] (0.03 μM compound, 0.03 µM) is on record as 69%. In addition, the “Percentage inhibition of ligand binding, Adrenergic α2A” value in assay [2] (setting [5]) is listed as 21%. The matching figures for `Cc1cnc2c(c1)c1c(n2CC(C)(O)c2ccc(C)nc2)CCN2CCCC12` (single isomer, unassigned) [148d]: 11% and −11%. Regarding `Cc1ccc2c(c1)c1c(n2CC(c2ccncc2)N(C)C)CCN(C)C1` (single isomer, unassigned) [150b], the “Percentage inhibition … Adrenergic α1B” value in assay [3] (0.1 μM compound, 0.1 µM) is 7%. Besides, in assay [2] (setting [5]), the “Percentage inhibition of ligand binding, Adrenergic α2A” value is recorded as 5%.

In the case of `C/C(=C\n1c2c(c3cc(C)ccc31)C1CCCCN1CC2)c1ccc(F)cc1` (single isomer, unassigned) [199a], the “Percentage inhibition of ligand binding, Adrenergic α2B” value in assay [1] (0.03 μM compound, 0.03 µM) is on record as 94%. In assay [2] (setting [5]), the “Percentage inhibition of ligand binding, Adrenergic α2A” value is reported as 96%. The matching figures for `C/C(=C\n1c2c(c3cc(C)ccc31)C1CCCCN1CC2)c1ccc(F)cc1` (single isomer, unassigned) [199b]: 27% and 61%. Turning to `CN1CCc2c(n(CC(O)c3ccc(F)c(F)c3)c3ccc(Cl)cc23)CC1` (single isomer, unassigned) [339a], in assay [3] (compound at 0.1 μM), the “Percentage inhibition … Adrenergic α1B” value is 13%. Besides, the “Percentage inhibition of ligand binding, Adrenergic α2A” value in assay [2] (compound at 0.1 μM, [3H]MK-912, 0.1 µM) stood at 37%. For `Cc1ccc2c(c1)c1c(n2CC(N)c2ccncc2)CCN2CCCC12` (single isomer, unassigned) [II-4a, 2-(9-methyl-1,2,3,4,5,10c-hexahydro-3a,6-diaza-cyclopenta[c]fluoren-6-yl)-1-pyridin-4-yl-ethylamine], the “Percentage inhibition of ligand binding, Adrenergic α2B” value in assay [1] (compound at 0.03 μM, 0.03 µM) is 79%.

On to `Cc1ccc2c(c1)c1c(n2CC(N)c2ccncc2)CCN2CCCC12` (single isomer, unassigned) [II-4b, 2-(9-methyl-1,2,3,4,5,10c-hexahydro-3a,6-diaza-cyclopenta[c]fluoren-6-yl)-1-pyridin-4-yl-ethylamine], for which the “Percentage inhibition of ligand binding, Adrenergic α2B” value in assay [1] (compound at 0.03 μM, 0.03 µM) is on record as 100%. In the case of `Cc1cnc2c(c1)c1c(n2CCc2ccc(C)nc2)CCN2CCCCC12` (single isomer, unassigned) [IV-8a], the “Percentage inhibition of ligand binding, Adrenergic α2B (0.03 μM)” value in assay [1] (compound at 0.03 μM, 0.03 µM) came to 4%. As to `C/C(=C\n1c2c(c3cc(C)ccc31)C1CCCN1CC2)c1ccc(C)nc1` (stereo not shown) [193a, 10-methyl-7-(2-(6-methylpyridin-3-yl)prop-1-enyl)-2,3,5,6,7,11c-hexahydro-1H-indolizino[7,8-b]indole], the inhibition at 0.1 µM worked out at 89% in assay [3] (0.1 μM compound, read-out: Percentage inhibition of ligand binding, Adrenergic α1B) and 85% in assay [2] (0.1 μM compound, [3H]MK-912, read-out: Percentage inhibition of ligand binding, Adrenergic α2A). `Cc1ccc2c(c1)c1c(n2C(C)C(O)c2ccncc2)CCN(C)C1` (stereo not shown) [II-98a]: the “Percentage inhibition … Adrenergic α1B” value in assay [3] (compound at 0.1 μM) was found to be 33%. Further, the “Percentage inhibition of ligand binding, Adrenergic α2A” value in assay [2] (compound at 0.1 μM, [3H]MK-912) came out at 12%. Take `Cc1ccc2c(c1)c1c(n2C(C)C(O)c2ccncc2)CCN(C)C1` (stereo not shown) [II-98b]: in assay [1] (compound at 0.03 μM), the “Percentage inhibition of ligand binding, Adrenergic α2B” value is 5%. As for `CN1CCc2c(c3cc(Cl)ccc3n2CC(O)c2ccncc2)C1` (stereo not shown) [compound 4], in assay [1], the inhibition at 0.03 µM stood at 106%. Still for that read-out and setting: as for `Cc1ccc2c(c1)c1c(n2CC(O)c2ccncc2)CN(C)CC1` (stereo not shown) [compound 8], the figure is 61%.

With `Cc1ccc2c(c1)c1c(n2CC(O)c2ccc(F)cc2)CCN(C)C1` (stereo not shown) [compound 30], the inhibition at 0.1 µM is 86% in assay [3] (read-out: Percentage inhibition of ligand binding, Adrenergic α1B (0.1 μM), compound at 0.1 μM, repeat datapoints each shown) and 63% in assay [2] (setting [4]).
